Experimental data from patent publication US6737383B1, “Herbicidal oxadiazolidines” (priority 1999, dated 2004).

What was measured:
[1] = system: blackgrass; assay: Test E blackgrass; assay type: in vivo, Alopecurus myosuroides; settings: Postemergence; for Plant response rating, Blackgrass: 0 to 100 scale
Procedure, shortened: (§1)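 Visually scored herbicidal effect relative to untreated plants, taken ~21 to 28 days post-application; compound in solvent with surfactant; postemergence sprays at the 1- to 4-leaf stage.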

[2] = system: common poppy; assay: Test E common poppy; assay type: in vivo, Papaver rhoeas; settings: Postemergence
Procedure, shortened: as §1

[3] = system: redroot pigweed; assay: Test E redroot pigweed; assay type: in vivo, Amaranthus retroflexus; settings: Postemergence; for Plant response rating, Redroot pigweed: 0 to 100 scale
Procedure, shortened: as §1

[4] = system: scentless chamomile; assay: Test E scentless chamomile; assay type: in vivo, Matricaria inodora; settings: Postemergence; for Plant response rating, Scentless chamo: 0 to 100 scale
Method: (§2) Compounds evaluated in this test were formulated in a non-phytotoxic solvent mixture which included a surfactant and applied to plants that were in the 1- to 4-leaf stage (postemergence application). A mixture of sandy loam soil and greenhouse potting mix in a 60:40 ratio was used for the postemergence test.
(§3) Plantings of these crops and weed species were adjusted to produce plants of appropriate size for the postemergence test. All plant species were grown using normal greenhouse practices. Crop and weed species include annual bluegrass (Poa annua), blackgrass (Alopecurus myosuroides), black nightshade (Solanum nigra), chickweed (Stellaria media), common poppy (Papaver rhoeas), deadnettle (Lamium amplexicaule), downy brome (Bromus tectorum), field violet (Viola arvensis), galium (Galium aparine), green foxtail (Setaria viridis), Italian ryegrass (Lolium multiflorum), jointed goatgrass (Aegilops cylindrica), kochia (Kochia scoparia), lambsquarters (Chenopodium album), littleseed canarygrass (Phalaris minor), rape (Brassica napus), redroot pigweed (Amaranthus retroflexus), Russian thistle (Salsola kali), scentless chamomile (Matricaria inodora), spring barley (Hordeum vulgare), sugar beet (Beta vulgaris), sunflower (Helianthus annuus), ivyleaf speedwell (Veronica hederaefolia), spring wheat (Triticum aestivum), winter wheat (Triticum aestivum), wild buckwheat (Polygonum convolvulus), wild mustard (Sinapis arvensis), wild oat (Avena fatua), windgrass (Apera spica-venti) and winter barley (Hordeum vulgare).
(§4) Treated plants and untreated controls were maintained in a greenhouse for approximately 21 to 28 days, after which all treated plants were compared to untreated controls and visually evaluated. […] A dash response (-) means no test result.

[5] = system: spring barley; assay: Test E spring barley; assay type: in vivo, Hordeum vulgare; settings: Postemergence; for Plant response rating, Spring Barley: 0 to 100 scale
Method: as §2, §3, §4

[6] = system: ivyleaf speedwell; assay: Test E postemergence ivyleaf speedwell; assay type: in vivo, Veronica hederaefolia; settings: for Plant response rating, Veronica hedera: 0 to 100 scale
Method: as §2, §3, §4

[7] = system: wild buckwheat; assay: Test E wild buckwheat; assay type: in vivo, Polygonum convolvulus; settings: Postemergence; for Plant response rating, Wild buckwheat: 0 to 100 scale
Procedure, shortened: as §1

[8] = system: bermuda-grass; assay: Test D bermudagrass; assay type: in vivo, Cynodon dactylon; settings: Postemergence, 0 to 100 scale
[9] = system: common groundsel; assay: Test D common groundsel; assay type: in vivo, Senecio vulgaris; settings: Postemergence, 0 to 100 scale
[10] = system: dallisgrass; assay: Test D dallisgrass; assay type: in vivo, Paspalum dilatatum; settings: Postemergence, 0 to 100 scale
[11] = system: pitted morningglory; assay: Test D pitted morningglory; assay type: in vivo, Ipomoea lacunosa; settings: Postemergence, 0 to 100 scale
[12] = system: purple nutsedge; assay: Test D purple nutsedge; assay type: in vivo, Cyperus rotundus; settings: Postemergence, 0 to 100 scale; for Purple nutsedge plant response rating: 0 no injury, 100 complete control
[13] = system: surinam grass; assay: Test D surinam grass; assay type: in vivo, Brachiaria decumbens; settings: Postemergence, 0 to 100 scale; for Surinam grass plant response rating: 0 no injury, 100 complete control
[14] = system: annual bluegrass; assay: Test E annual bluegrass; assay type: in vivo, Poa annua; settings: Preemergence
[15] = system: deadnettle; assay: Test E deadnettle; assay type: in vivo, Lamium amplexicaule; settings: Preemergence
[16] = system: field violet; assay: Test E field violet; assay type: in vivo, Viola arvensis; settings: Preemergence
[17] = system: redroot pigweed; assay: Test E redroot pigweed; assay type: in vivo, Amaranthus retroflexus; settings: Preemergence
[18] = system: Russian thistle; assay: Test E Russian thistle; assay type: in vivo, Salsola kali; settings: Preemergence
[19] = system: spring barley; assay: Test E spring barley; assay type: in vivo, Hordeum vulgare; settings: Preemergence
[20] = system: sugar beet; assay: Test E sugar beet; assay type: in vivo, Beta vulgaris; settings: Preemergence
[21] = system: spring wheat; assay: Test E spring wheat; assay type: in vivo, Triticum aestivum; settings: Preemergence
[22] = system: wild buckwheat; assay: Test E wild buckwheat; assay type: in vivo, Polygonum convolvulus; settings: Preemergence
[23] = system: windgrass; assay: Test E windgrass; assay type: in vivo, Apera spica-venti; settings: Preemergence
[24] = Rate 500 g/ha, 0 no effect, 100 complete control
[25] = Rate 250 g/ha, 0 to 100 scale where 0 is no effect and 100 is complete control
[26] = Rate 64 g/ha, 0 no injury, 100 complete control
[27] = Rate 125 g/ha, 0 no injury, 100 complete control
[28] = Rate 125 g/ha, 0 to 100 scale (0 no effect, 100 complete control)
[29] = Rate 500 g/ha, 0 to 100 scale where 0 is no effect and 100 is complete control

C=CCn1c(=O)on(C(=O)N(c2ccc(F)cc2)C(C)C)c1=O [Compound 146]
Plant response rating, Blackgrass ([1]; Rate 62 g/ha): 70
Plant response rating, Blackgrass ([1]; Rate 125 g/ha): 25
Plant response rating, Blackgrass [1, 24]: 40
Blackgrass plant response rating [1, 25]: 15
Plant response rating, Common poppy ([2]; Rate 62 g/ha, 0 to 100 scale): 60
Plant response rating, Comnion poppy ([2]; Rate 125 g/ha, 0 to 100 scale): 10
Plant response rating, Common poppy ([2]; Rate 500 g/ha, 0 to 100 scale, 0 no effect, 100 complete control): 10
Common poppy plant response rating [2, 25]: 0
Plant response rating, Redroot pigweed ([3]; Rate 62 g/ha): 30
Plant response rating, Redroot pigweed ([3]; Rate 125 g/ha): 20
Plant response rating, Redroot pigweed [3, 24]: 50
Redroot pigweed plant response rating [3, 25]: 10
Plant response rating, Scentless chamo ([4]; Rate 62 g/ha): 20
Plant response rating, Scentless chamo ([4]; Rate 125 g/ha): 10
Plant response rating, Scentless chamo [4, 24]: 10
Scentless chamo plant response rating [4, 25]: 10
Plant response rating, Spring Barley ([5]; Rate 62 g/ha): 20
Plant response rating, Spring Barley ([5]; Rate 125 g/ha): 10
Plant response rating, Spring Barley [5, 24]: 20
Spring Barley plant response rating [5, 25]: 10
Plant response rating, Veronica hedera ([6]; Rate 125 g/ha): 60
Veronica hedera plant response rating [6, 25]: 40
Plant response rating, Veronica hedera [6, 24]: 70
Plant response rating, Wild buckwheat ([7]; Rate 62 g/ha): 20
Plant response rating, Wild buckwheat ([7]; Rate 125 g/ha): 0
Plant response rating, Wild buckwheat [7, 24]: 50
Wild buckwheat plant response rating [7, 25]: 10
Plant response rating, Bermudagrass [8, 26]: 0
Plant response rating, Bermudagrass [8, 27]: 0
Plant response rating, Bermudagrass ([8]; Rate 250 g/ha): 0
Plant response rating, Bermudagrass ([8]; Rate 500 g/ha): 35
Plant response rating, Com. groundsel [9, 26]: 0
Plant response rating, Com. groundsel [9, 27]: 0
Plant response rating, Com. groundsel ([9]; Rate 250 g/ha): 0
Plant response rating, Com. groundsel ([9]; Rate 500 g/ha): 0
Plant response rating, Dallisgrass [10, 27]: 30
Plant response rating, Dallisgrass ([10]; Rate 250 g/ha): 60
Plant response rating, Dallisgrass ([10]; Rate 500 g/ha): 80
Plant response rating, P. morninglory [11, 26]: 30
Plant response rating, P. morninglory [11, 27]: 40
Plant response rating, P. morninglory ([11]; Rate 250 g/ha): 50
Plant response rating, P. morninglory ([11]; Rate 500 g/ha): 65
Purple nutsedge plant response rating ([12]; Rate 64 g/ha): 0
Purple nutsedge plant response rating ([12]; Rate 125 g/ha): 0
Plant response rating, Purple nutsedge ([12]; Rate 250 g/ha): 0
Plant response rating, Purple nutsedge ([12]; Rate 500 g/ha): 35
Plant response rating Surinam grass ([13]; Rate 500 g/ha): 80
Plant response rating, Annual bluegras [14, 28]: 60
Annual bluegras plant response rating (0 to 100 scale) ([14]; Rate 250 g/ha): 80
Plant response rating, Annual bluegras [14, 29]: 90
Plant response rating, Deadnettle [15, 28]: 40
Deadnettle plant response rating (0 to 100 scale) ([15]; Rate 250 g/ha): 40
Plant response rating, Deadnettle [15, 29]: 50
Plant response rating, Field violet [16, 28]: 10
Field violet plant response rating (0 to 100 scale) ([16]; Rate 250 g/ha): 30
Plant response rating, Field violet [16, 29]: 50
Plant response rating, Redroot pigweed [17, 28]: 70
Redroot pigweed plant response rating (0 to 100 scale) ([17]; Rate 250 g/ha): 100
Plant response rating, Redroot pigweed [17, 29]: 100
Plant response rating, Russian thistle [18, 28]: 0
Russian thistle plant response rating (0 to 100 scale) ([18]; Rate 250 g/ha): 0
Plant response rating, Russian thistle [18, 29]: 10
Plant response rating, Spring Barley [19, 28]: 20
Spring Barley plant response rating (0 to 100 scale) ([19]; Rate 250 g/ha): 10
Plant response rating, Spring Barley [19, 29]: 90
Plant response rating, Sugar beet [20, 28]: 60
Sugar beet plant response rating (0 to 100 scale) ([20]; Rate 250 g/ha): 60
Plant response rating, Sugar beet [20, 29]: 80
Plant response rating, Spring Wheat [21, 28]: 50
Spring Wheat plant response rating (0 to 100 scale) ([21]; Rate 250 g/ha): 80
Plant response rating, Spring Wheat [21, 29]: 100
Plant response rating, Wild buckwheat [22, 28]: 70
Wild buckwheat plant response rating (0 to 100 scale) ([22]; Rate 250 g/ha): 85
Plant response rating, Wild buckwheat [22, 29]: 100
Plant response rating, Windgrass [23, 28]: 100
Windgrass plant response rating (0 to 100 scale) ([23]; Rate 250 g/ha): 100
Plant response rating, Windgrass [23, 29]: 100

CC(C)N(C(=O)n1oc(=O)n(C2CC2)c1=O)c1ccc(F)cc1F [Compound 299]
Plant response rating, Bermudagrass [8, 26]: 90
Plant response rating, Bermudagrass [8, 27]: 100
Plant response rating, Bermudagrass ([8]; Rate 250 g/ha): 100
Plant response rating, Bermudagrass ([8]; Rate 500 g/ha): 100
Plant response rating, Com. groundsel [9, 26]: 100
Plant response rating, Com. groundsel [9, 27]: 100
Plant response rating, Com. groundsel ([9]; Rate 250 g/ha): 100
Plant response rating, Com. groundsel ([9]; Rate 500 g/ha): 100
Plant response rating, Dallisgrass [10, 26]: 100
Plant response rating, Dallisgrass [10, 27]: 100
Plant response rating, Dallisgrass ([10]; Rate 250 g/ha): 100
Plant response rating, Dallisgrass ([10]; Rate 500 g/ha): 100
Plant response rating, P. morninglory [11, 26]: 0
Plant response rating, P. morninglory [11, 27]: 0
Plant response rating, P. morninglory ([11]; Rate 250 g/ha): 0
Plant response rating, P. morninglory ([11]; Rate 500 g/ha): 0
Purple nutsedge plant response rating ([12]; Rate 64 g/ha): 0
Purple nutsedge plant response rating ([12]; Rate 125 g/ha): 0
Plant response rating, Purple nutsedge ([12]; Rate 250 g/ha): 0
Plant response rating, Purple nutsedge ([12]; Rate 500 g/ha): 100
Surinam grass plant response rating ([13]; Rate 64 g/ha): 50
Surinam grass plant response rating ([13]; Rate 125 g/ha): 100
Plant response rating Surinam grass ([13]; Rate 250 g/ha): 100
Plant response rating Surinam grass ([13]; Rate 500 g/ha): 100
